Data on one compound can be found in US9700637B2, “Reaction-based fluorescent probes for detecting zinc” (Massachusetts Institute of Technology, priority 2013, dated 2017).

What all share (type): physicochemical
Data set [1] in a line: Deacetylation kinetics monitored by UV-vis absorbance (metal-mediated and uncatalyzed hydrolysis). To be noted: 2.75 μM, 125 μM ZnCl2, 37° C., 50 mM PIPES pH 7, 100 mM KCl, absorbance 510 nm. Here is the method:
FIG. 23 depicts kinetic traces for the deacetylation of DA-ZP1-TPP. The half-life for deacetylation of a 2.75 μM solution of DA-ZP1-TPP, at 37° C. in 50 mM PIPES buffer (pH 7) and 100 mM KCl, was measured in the presence of 125 μM ZnCl2 (+Zn), 250 μM EDTA (−Zn), or 1.25 units of porcine liver esterase (Esterase). The change in absorbance at 520 nm (EDTA and esterase) or 510 nm (ZnCl2) was used to monitor the reaction.
FIG. 26 depicts in vitro characterization of DA-ZP1-A3. (a) UV-vis and (b) fluorescence spectra of a 5 μM solution of DA-ZP1-A3 in buffer (50 mM PIPES, 100 mM KCl; pH 7). Spectra were acquired initially, upon addition of 100 μM ZnCl2, and again after addition of 200 μM EDTA. (c) Time-dependent change in the normalized absorbance of a ca. 5 μM solution DA-ZP1-A3 at 37° C. in buffer (50 mM PIPES, 100 mM KCl; pH 7) in the presence of 100 μM ZnCl2 (λabs=510 nm) or EDTA (λabs=520 nm). (d) Integrated fluorescence intensity of a 1 μM solution of ZP1-A3 (circles) or DA-ZP1-A3 (squares) as a function of pH. […]
DA-ZP1-TPP has a zinc-induced fluorescence response and is relatively stable to uncatalyzed hydrolysis and esterase activity. […] Other late 3d-block transition metal ions, such as Co(II) and Cu(II), can coordinate to DA-ZP1-TPP but are generally not available in appreciable chelatable quantities within the cell. […]

Data set [2] in a line: pH profile of fluorescence. The protocol: FIG. 21 depicts normalized fluorescence signals for DA-ZP1-TPP as a function of increasing pH in the presence of 125 μM ZnCl2 or 250 μM EDTA. Data were acquired 17.5 mM (0.1% v/v) acetic acid in milli-Q H2O beginning at pH 3.5. The pH of the solution was increased by sequential addition of aqueous KOH. The total volume of KOH added was less than 5% of the total volume. λex=475 nm.
FIG. 26 depicts in vitro characterization of DA-ZP1-A3. (a) UV-vis and (b) fluorescence spectra of a 5 μM solution of DA-ZP1-A3 in buffer (50 mM PIPES, 100 mM KCl; pH 7). Spectra were acquired initially, upon addition of 100 μM ZnCl2, and again after addition of 200 μM EDTA. (c) Time-dependent change in the normalized absorbance of a ca. 5 μM solution DA-ZP1-A3 at 37° C. in buffer (50 mM PIPES, 100 mM KCl; pH 7) in the presence of 100 μM ZnCl2 (λabs=510 nm) or EDTA (λabs=520 nm). (d) Integrated fluorescence intensity of a 1 μM solution of ZP1-A3 (circles) or DA-ZP1-A3 (squares) as a function of pH.
Next, we investigated the pH profile of DA-ZP1-TPP. The use of nitrogen atoms to coordinate zinc endows Zinpyr sensors with selectivity for zinc over calcium and magnesium, but also renders them pH sensitive. […] Protonation of these amines leads to increased background fluorescence because protons can diminish PeT in a manner similar to that of zinc ions. […]

The nature of data set [3]: Metal ion selectivity of fluorescence response. Conditions: 50 mM PIPES pH 7, 100 mM KCl, 25° C. The protocol:
FIG. 22 depicts metal ion selectivity of DA-ZP1-TPP. Average normalized fluorescence intensities for a 1.1 μM solution of DA-ZP1-TPP in 50 mM PIPES buffer (pH 7) with 100 mM KCl at 25° C., after addition of 50 μM-2 mM concentrations of various metal ions (white bars), followed by addition of 50 μM ZnCl2 (black bars). The grey column represents the average sensor intensity after addition of 100 μM EDTA. Data were normalized to initial measured emission intensity at λex=495 nm.
DA-ZP1-TPP has a zinc-induced fluorescence response and is relatively stable to uncatalyzed hydrolysis and esterase activity. […] Other late 3d-block transition metal ions, such as Co(II) and Cu(II), can coordinate to DA-ZP1-TPP but are generally not available in appreciable chelatable quantities within the cell. In addition to monitoring selectivity in the fluorescence response, we used UV-vis spectroscopy to investigate the rate and zinc-specificity of metal-mediated ester hydrolysis. […] By monitoring the absorbance of the xanthene it system, we could interrogate deacetylation kinetics in a manner that is independent of the fluorescence response. […] To determine whether ester hydrolysis depends on the metal-binding core of DA-ZP1-TPP, we measured the deacetylation kinetics of fluorescein diacetate (DA-FL) under analogous conditions. […]

On to `CC(=O)Oc1c(Cl)cc2c(c1CN(Cc1ccccn1)Cc1ccccn1)Oc1c(cc(Cl)c(OC(C)=O)c1CN(Cc1ccccn1)Cc1ccccn1)C21OC(=O)c2ccc(C(=O)NCC[P+](c3ccccc3)(c3ccccc3)c3ccccc3)cc21` [DA-ZP1-TPP], for which, in data set [1], the “kobs of zinc-induced deacetylation” value is 0.0855 ± 0.019 s⁻¹. For the same compound, in data set [2] (absence of zinc), the “fluorescence turn-on under acidic conditions” value was “no significant fluorescence turn-on under acidic conditions”. Besides, the “pH at which a strong zinc-dependent fluorescence response is displayed” value in data set [2] (presence of excess zinc ions (125 μM ZnCl2)) is on record as over 5. The “metal ion selectivity of fluorescence response” value in data set [3] is “responds to Zn(II) over biologically relevant cations such as Ca(II) and Mg(II)”.
